The subject of the series is Orius laevigatus. Briefly: Safety to beneficial species: test on Orius laevigatus on treated french bean leaf discs. The format is in vivo. The following applies: Orius laevigatus adults; for Corrected Mortality (%) 2 DAI: 2 days after infestation; for Corrected Mortality (%) 4 DAI: 4 days after infestation. The procedure: Phaseolus vulgaris var. Fulvio (french bean) plants were reduced to one leaf. With the leaves held in a horizontal position, a track sprayer was used to treat the plants at a rate corresponding to […]. Once dry, leaf discs were collected from the plants and placed treated side up in petri dishes containing 1% water agar.
A paper triangle was added for shelter, and a suitable amount of Ephestia eggs were added as a food supply. Five (5) Orius laevigatus (predatory bug, Syngenta Bioline) adults were added and the dishes closed with a cotton filter and perforated plastic lid. The dishes were incubated in a climate chamber at 25° C., 75% relative humidity, 16:8 h light/dark regime.
Six replicates were provided for each treatment and concentration level. The number of living and dead Orius laevigatus were counted two and four days after infestation (DAI). At the day two evaluation the food supply was replenished.

This is an account of results in patent publication US20160046620A1, “METHODS OF CONTROLLING NEONICOTINOID RESISTANT PESTS” (SYNGENTA PARTICIPATIONS AG, priority 2013, published 2016).

`O=[N+]([O-])NC1=NCCN1Cc1ccc(Cl)nc1` [Imidacloprid, reference compound]: the “Corrected Mortality (%) 2 DAI” value turned out to be 11% (50 ppm), 43% (100 ppm) and 75% (200 ppm). In addition, the “Corrected Mortality (%) 4 DAI” value was found to be 30% (50 ppm), 65% (100 ppm) and 100% (200 ppm).

For `N#Cc1cncc([C@]2(C#N)C[C@H]3CC[C@@H](C2)N3CC(F)(F)F)c1` [Compound 1.085], the “Corrected Mortality (%) 2 DAI” value was found to be 0% (50 ppm), 0% (100 ppm) and 0% (200 ppm). Moreover, the “Corrected Mortality (%) 4 DAI” value is, setting by setting: (50 ppm) 9%; (100 ppm) 9%; (200 ppm) 22%.

`C#CCN1[C@@H]2CC[C@H]1C[C@](C#N)(c1cncc(C#N)c1)C2` [Compound 1.074, (1S,3S,5R)-3-(5-cyano-pyridin-3-yl)-8-prop-2-ynyl-8-aza-bicyclo[3.2.1]octane-3-carbonitrile]: the “Corrected Mortality (%) 2 DAI” value was 4% (50 ppm), 0% (100 ppm) and 7% (200 ppm). Besides, the “Corrected Mortality (%) 4 DAI” value reads like this: (50 ppm) 4%; (100 ppm) 0%; (200 ppm) 39%.
